Experimental findings from patent US11458138B2 (Novartis AG, priority 2017, dated 2022) are described below.

One experiment has as its system limbal stem cells (LSCs). Description: Differentiation of expanded LSCs into corneal epithelium cells (p63alpha / keratin 12). Conditions: transferred to conditions that enable differentiation. Type of experiment: cell-based, human. The text has this:
Shown are views where the transition from the p63alpha-positive cell identity to the keratin-12 identity are occurring.
These characteristics can be observed by immunohistochemistry or FACS.

The test system of experiment [1] is corneal endothelium cell population. Nature of the experiment: FACS analysis of expanded corneal endothelium cell population (CD73, CD44, CD166, CD105). Type of experiment: cell-based, human. Conditions: vs CECs cultured without LATS inhibitor (high levels). The text has this:
FIG. 21: FACS analysis of the corneal endothlelium cell population expanded in the presence of the LATS inhibitor, compound ex. 47, and CECs cultured in the absence of a LATS inhibitor. The cell population expanded in the presence of the LATS inhibitor expresses low levels of CD73 (FIG. 21a, grey line), CD44 (FIG. 21b, grey line), CD166 (FIG. 21c, grey line) and CD105 (FIG. 21d, grey line); while the cell population cultured without the LATS inhibitor expresses high levels of CD44, CD73, CD105 and CD166 (black lines).
(4) The cells express relatively low levels of CD73. The relative expression levels are lower than cells which have undergone endothelial to mesenchymal transition. The expression of CD73 may be estimated by standard techniques known in the art, such as for example FACS analysis or immunohistochemistry.

For a further experiment, the system named is Cyr61 mRNA in liver. Description: In vivo treatment of mice: quantitative RT-PCR, Cyr61. Conditions: mouse liver, single oral dose 30 mg/kg, 2 h post-dose, relative to vehicle, mean+/-SEM. Here is the method: (§1) All animal studies were carried out in accordance with federal, state, local and institutional guidelines governing the use of laboratory animals in research. Male C57BL/6J mice (age 8-10 weeks) were purchased from Jackson Labs (Bar Harbor, Me.). Example 46 was formulated for oral dosing at 3 mg/ml, and Example 261 at 1 mg/ml, in a suspension of methylcellulose:Tween80:Water (0.5:0.5:99). Single oral dose of either compound was at 10 mL/kg body weight. Blood and liver tissue were collected under deep anesthesia (isoflurane) at either 2 h post-dose (for mRNA analysis) or 24 h post-dose (for immunohistochemistry).
(§2) Total liver RNA was isolated from tissue after storage in RNAlater reagent (Qiagen), using a TRIzol method according to the manufacturer's instructions (Life Technologies). Relative mRNA abundance was measured by quantitative RT-PCR using TaqMan gene expression assays and reagents according to standard protocols (Applied Biosystems). Mouse probes for YAP target genes were CTGF (Mm01192933_g1) and Cyr61 (Mm00487498_m1). […] Relative changes in mRNA were calculated by the ΔΔCt method. Changes in gene expression with compound treatment are expressed as fold-change relative to the vehicle group.

The next experiment deals with CTGF mRNA in liver. Description: In vivo treatment of mice: quantitative RT-PCR, CTGF. Conditions: mouse liver, single oral dose 30 mg/kg, 2 h post-dose, relative to vehicle, mean+/-SEM. Here is the method: as §1, §2
The subject of experiment [2] is Ki67-positive hepatocytes. Description: In vivo treatment of mice: immunohistochemistry (IHC) for Ki67 in liver. Conditions: mouse liver, single oral dose 30 mg/kg, 24 h post-dose, relative to vehicle, mean+/-SEM. Here is the method:
as §1
Liver tissue was fixed in 10% neutral buffered formalin for 24-48 h. Processing and embedding in paraffin was by standard procedures. Sections were cut at 5 microns thickness and stained using a Ventana automated system. Primary antibody for mouse Ki67 was a rabbit IgG (Bethyl Labs). Ki67-positive hepatocytes were quantified by image analysis using the HALO platform. At least 3 sections per animal were analyzed, from the middle of the medial lobe.

For experiment [3], the system named is Phospho-YAP (SER127) in liver tissue. Description: In vivo treatment of mice: Phospho-YAP (pYAP) HTRF in liver tissue. Conditions: mouse liver, single oral dose 30 mg/kg. How it is done: as §1
Frozen liver tissue was transferred into a Lysing Matrix tube (MP, cat #6913-500) with a 1:50 solution of Protease inhibitor (Sigma-Aldrich, cat #P8340) in Phosphosafe extraction buffer (Novagen, cat #71296-3) and homogenized using the FastPrep-24 (MP biomedicals). […] The protein concentration was measured using the BCA Protein Assay Kit (Pierce cat. 23227) following the manufacturer's protocol. […] The same input quantity was used for each sample, based on total protein content (30-60 ug per sample per well). […] Plates were read on an EnVision (PerkinElmer) with emission wavelengths of 665 nm & 620 nm. The HTRF signal ratio was calculated as Signal(665 nm)/Signal(620 nm))×10000 as specified in the manufacturer's protocol. […]

A further experiment concerns the target LATS1 (Homo sapiens (Human), UniProt O95835). Description: LATS1 biochemical assay (Table 1A, Compound Examples 1-290; method in the earlier part).
Experiment [4] concerns YAP nuclear translocation in HaCaT cells. Nature of the experiment: YAP Translocation Assay (HaCaT Cells). Conditions: Homo sapiens, 24 hours. The format is cell-based, human. Summed up:
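HaCaT cells (20,000/well) in DMEM + 10% FBS were plated overnight at 37° C, then exposed to compound for 24 h at 37° C. Cells were fixed with PFA, permeabilized with 0.1% Triton/1.5% BSA and imaged by high-content imaging.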

Sequence of LATS1 (O95835 whole entry, looked up): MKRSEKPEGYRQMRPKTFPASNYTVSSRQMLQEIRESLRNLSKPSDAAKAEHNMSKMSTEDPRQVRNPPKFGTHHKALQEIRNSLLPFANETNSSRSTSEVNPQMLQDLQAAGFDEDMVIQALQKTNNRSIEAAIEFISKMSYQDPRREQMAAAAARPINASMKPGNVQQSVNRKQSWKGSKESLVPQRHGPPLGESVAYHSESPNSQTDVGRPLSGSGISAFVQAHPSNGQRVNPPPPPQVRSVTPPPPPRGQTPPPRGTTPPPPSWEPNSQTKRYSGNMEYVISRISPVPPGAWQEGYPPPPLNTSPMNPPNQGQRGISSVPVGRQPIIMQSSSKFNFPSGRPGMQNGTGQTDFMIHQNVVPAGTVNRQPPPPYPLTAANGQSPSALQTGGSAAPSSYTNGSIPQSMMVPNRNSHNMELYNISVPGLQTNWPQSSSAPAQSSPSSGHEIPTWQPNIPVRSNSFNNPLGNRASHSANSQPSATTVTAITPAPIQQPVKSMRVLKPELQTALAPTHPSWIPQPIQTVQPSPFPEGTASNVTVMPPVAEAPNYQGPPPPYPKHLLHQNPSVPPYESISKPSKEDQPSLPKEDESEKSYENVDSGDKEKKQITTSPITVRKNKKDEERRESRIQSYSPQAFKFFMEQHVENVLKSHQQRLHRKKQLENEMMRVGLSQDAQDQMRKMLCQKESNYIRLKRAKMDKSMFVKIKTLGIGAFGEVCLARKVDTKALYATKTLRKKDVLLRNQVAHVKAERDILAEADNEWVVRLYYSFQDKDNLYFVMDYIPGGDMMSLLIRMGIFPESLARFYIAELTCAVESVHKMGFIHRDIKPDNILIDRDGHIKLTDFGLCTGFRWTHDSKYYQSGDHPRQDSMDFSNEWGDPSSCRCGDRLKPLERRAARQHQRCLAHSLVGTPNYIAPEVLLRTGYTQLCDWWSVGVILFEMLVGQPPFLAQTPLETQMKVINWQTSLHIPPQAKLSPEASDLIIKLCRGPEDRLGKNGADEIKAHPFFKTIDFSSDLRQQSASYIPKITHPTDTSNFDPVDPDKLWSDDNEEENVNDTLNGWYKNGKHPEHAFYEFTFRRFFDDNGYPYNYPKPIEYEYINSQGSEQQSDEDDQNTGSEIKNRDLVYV
Sequence of LATS1 (Q7L9L4 whole entry partner, looked up): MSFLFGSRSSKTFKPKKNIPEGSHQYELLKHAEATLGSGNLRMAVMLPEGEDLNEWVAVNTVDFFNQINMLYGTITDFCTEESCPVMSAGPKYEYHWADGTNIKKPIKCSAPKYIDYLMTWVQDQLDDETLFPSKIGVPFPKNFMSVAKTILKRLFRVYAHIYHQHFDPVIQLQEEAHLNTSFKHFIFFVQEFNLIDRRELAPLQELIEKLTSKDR

In the case of `CC(N(C)c1nc(-c2ccncc2)nc2cnccc12)C(F)(F)F` (racemic) [Example 47, N-methyl-2-(pyridin-4-yl)-N-(1,1,1-trifluoropropan-2-yl)pyrido[3,4-d]pyrimidin-4-amine], in the experiment with limbal stem cells (LSCs), the “differentiation of expanded LSCs into corneal epithelium cells (keratin 12)” value is recorded as “can differentiate into corneal epithelium cells”. For the same molecule, in experiment [1], the “expression of CD73, CD44, CD166 and CD105 by FACS” value is “low levels”.
For `c1cc(-c2nc(NCCCc3nnn[nH]3)c3ccncc3n2)ccn1` [Example 46, 2-(pyridin-4-yl)-N-[3-(1H-1,2,3,4-tetrazol-5-yl)propyl]pyrido[3,4-d]pyrimidin-4-amine], the “Cyr61 mRNA (fold-change)” value with Cyr61 mRNA in liver is listed as 3.5 (+/−0.5) fold-change. Moreover, the “CTGF mRNA (fold-change)” value in the experiment with CTGF mRNA in liver is 2.1 (+/−0.4) fold-change. Further, in experiment [2], the “Ki67 IHC (fold-change)” value was 3.3 (+/−0.2) fold-change. In experiment [3], the “pYAP (% of control)” value is reported as 64 % of control. The IC50 at LATS1 was over 2.5 µM. In experiment [4], the EC50 was over 20 µM.

In general, IC50 refers to the point on the concentration scale where inhibition reaches its midpoint. A higher IC50 goes with weaker potency in that assay. By EC50 is commonly meant the concentration that produces a half-maximal response. Low readings indicate greater potency, high ones weaker potency.
